Assay results from patent publication US7790753B2, “Derivatives of N-[phenyl(alkylpiperidine-2-yl)methyl]benzamide, preparation method thereof and application of same in therapeutics” (sanofi-aventis, priority 2003, dated 2010).
Counter-ions that a name gives are not always drawn.

How the values were obtained:
[1] = target: T1, native human transporter glyt1 (Homo sapiens, UniProt P48067); experiment: Glycine transportation ([14C]glycine uptake) in SK-N-MC cells expressing the native human transporter glyt1; type: cell-based; conditions: 10 μM [14C]glycine, 10 minutes at 37° C., read-out: IC50, concentration of compound that reduces by 50% the specific uptake of glycine
T1 construct: SK-N-MC cells (human neuroepithelial cells) expressing the native human transporter glyt1; endogenous in cells; host or cells: SK-N-MC cells (human neuroepithelial cells)
T1 sequence (P48067 1-706): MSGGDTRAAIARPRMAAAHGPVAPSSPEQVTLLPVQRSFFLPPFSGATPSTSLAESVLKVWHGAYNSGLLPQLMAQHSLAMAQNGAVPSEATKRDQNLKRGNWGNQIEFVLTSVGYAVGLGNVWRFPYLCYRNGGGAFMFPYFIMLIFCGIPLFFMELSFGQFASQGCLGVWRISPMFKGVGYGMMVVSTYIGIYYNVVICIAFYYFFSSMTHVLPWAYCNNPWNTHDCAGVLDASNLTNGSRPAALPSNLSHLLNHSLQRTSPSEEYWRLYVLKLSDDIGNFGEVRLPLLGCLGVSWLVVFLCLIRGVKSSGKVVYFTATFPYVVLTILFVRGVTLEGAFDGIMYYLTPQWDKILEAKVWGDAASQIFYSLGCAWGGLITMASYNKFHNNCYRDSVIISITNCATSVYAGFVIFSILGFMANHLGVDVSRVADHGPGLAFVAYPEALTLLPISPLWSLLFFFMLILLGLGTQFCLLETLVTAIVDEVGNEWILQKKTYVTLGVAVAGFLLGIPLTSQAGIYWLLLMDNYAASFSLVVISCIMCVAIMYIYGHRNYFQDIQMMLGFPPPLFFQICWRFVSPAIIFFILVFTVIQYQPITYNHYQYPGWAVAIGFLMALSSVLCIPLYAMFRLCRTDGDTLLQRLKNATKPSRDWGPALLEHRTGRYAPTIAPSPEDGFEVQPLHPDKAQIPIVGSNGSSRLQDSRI
Protocol: Study of Glycine Transportation in SK-N-MC Cells Expressing the Native Human Transporter glyt1
The uptake of [^14C]glycine is studied in SK-N-MC cells (human neuroepithelial cells) expressing the native human transporter glyt1 by measuring the radioactivity incorporated in the presence or absence of the test compound. The cells are cultured as a monolayer for 48 hours in plates pretreated with 0.02% fibronectin. On the day of the experiment, the culture medium is removed and the cells are washed with Krebs-HEPES buffer ([4-(2-hydroxyethyl)-1-piperazineethanesulfonic acid) at pH 7.4. After preincubation for 10 minutes at 37° C. in the presence either of buffer (control batch) or of test compound at various concentrations or of 10 mM glycine (determination of the nonspecific uptake), 10 μM of [^14C]glycine (specific activity 112 mCi/mmol) are then added.
Incubation is continued for 10 minutes at 37° C., and the reaction is quenched by washing twice with pH 7.4 Krebs-HEPES buffer. The radioactivity incorporated by the cells is then estimated after adding 100 μl of liquid scintillant and stirring for 1 hour. Counting is performed on a Microbeta Tri-Lux™ counter. The efficacy of the compound is determined by means of the IC50, which is the concentration of compound that reduces by 50% the specific uptake of glycine, defined by the difference in radioactivity incorporated by the control batch and the batch that received 10 mM of glycine.

transporter glyt2 = target: T2, transporter glyt2 (Mus musculus, UniProt Q761V0); experiment: Glycine transportation ([14C]glycine uptake) in mouse spinal cord homogenate; type: biochemical; conditions: 10 μM [14C]glycine, 10 minutes at 25° C., read-out: IC50, concentration capable of reducing by 50% the specific uptake of glycine
T2 construct: from tissue; host or cells: spinal cord of male OF1 Iffa Credo mice
T2 sequence (Q761V0 1-799): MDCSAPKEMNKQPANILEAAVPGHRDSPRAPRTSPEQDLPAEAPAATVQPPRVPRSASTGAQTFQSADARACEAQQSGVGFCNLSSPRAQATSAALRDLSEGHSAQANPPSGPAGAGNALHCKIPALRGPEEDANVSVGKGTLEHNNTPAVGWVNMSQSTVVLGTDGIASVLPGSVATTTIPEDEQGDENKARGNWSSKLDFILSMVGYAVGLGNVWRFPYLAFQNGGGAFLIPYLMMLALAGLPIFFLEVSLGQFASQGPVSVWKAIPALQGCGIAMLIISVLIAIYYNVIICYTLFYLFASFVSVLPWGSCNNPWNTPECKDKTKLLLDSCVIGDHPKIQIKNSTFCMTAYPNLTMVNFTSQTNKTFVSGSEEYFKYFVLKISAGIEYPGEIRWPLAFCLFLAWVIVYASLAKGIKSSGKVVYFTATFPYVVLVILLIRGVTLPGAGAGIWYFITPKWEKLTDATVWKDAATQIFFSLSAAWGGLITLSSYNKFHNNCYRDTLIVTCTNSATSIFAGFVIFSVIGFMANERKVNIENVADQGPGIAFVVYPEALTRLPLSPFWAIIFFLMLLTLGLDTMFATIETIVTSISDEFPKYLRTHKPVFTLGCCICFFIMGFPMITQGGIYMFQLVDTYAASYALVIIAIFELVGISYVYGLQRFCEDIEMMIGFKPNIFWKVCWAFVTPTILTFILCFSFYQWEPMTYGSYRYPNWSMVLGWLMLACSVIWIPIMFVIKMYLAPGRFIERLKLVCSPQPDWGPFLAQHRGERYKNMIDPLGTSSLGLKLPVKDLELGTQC
Text: Study of the Glycine Transportation in Mouse Spinal Cord Homogenate
The uptake of [^14C]glycine by the transporter glyt2 is studied in mouse spinal cord homogenate by measuring the radioactivity incorporated in the presence or absence of test compound.
After euthanizing the animals (male OF1 Iffa Credo mice weighing 20 to 25 g on the day of the experiment), the spinal cord of each animal is rapidly removed, weighed and stored on ice. The samples are homogenized in pH 7.4 Krebs-HEPES buffer ([4-(2-hydroxyethyl)-1-piperazineethanesulfonic acid), in a proportion of 25 ml/g of tissue.
50 μl of homogenate are preincubated for 10 minutes at 25° C. in the presence of pH 7.4 Krebs-HEPES buffer and of test compound at various concentrations, or of 10 mM of glycine to determine the nonspecific uptake. [^14C]glycine (specific activity=112 mCi/mmol) is then added over 10 minutes at 25° C. to a final concentration of 10 μM. The reaction is quenched by vacuum filtration and the radioactivity is estimated by solid scintillation by counting on a Microbeta Tri-Lux™ counter. The efficacy of the compound is determined by means of the IC50, the concentration capable of reducing by 50% the specific uptake of glycine, defined by the difference in radioactivity incorporated by the control batch and the batch that received 10 mM of glycine.

IC50 [1] [nM] | IC50 (transporter glyt2) [nM] | SMILES
8 |  | CN1CCCCC1(C)C(NC(=O)c1cccc(C(F)(F)F)c1Cl)c1ccccc1 (stereo not drawn) [Compound 10, Threo-2-chloro-N-[(1,2-dimethyl-2-piperidyl)(phenyl)methyl]-3-(trifluoromethyl)benzamide hydrochloride 1:1]
90 | 70 | CC1CCN(C)C(C(NC(=O)c2cccc(C(F)(F)F)c2Cl)c2ccccc2)C1 (stereo not drawn) [Compound 9, Cis-threo-2-chloro-N-[(1,4-dimethyl-2-piperidyl)(phenyl)methyl]-3-(trifluoromethyl)benzamide hydrochloride 1:1]
510 | 120 | CC1CCCC(C(NC(=O)c2cccc(C(F)(F)F)c2Cl)c2ccccc2)N1C (stereo not drawn) [Compound 1, Cis-threo-2-chloro-N-[(1,6-dimethyl-2-piperidyl)(phenyl)methyl]-3-(trifluoromethyl)benzamide hydrochloride 1:1]
100 |  | CC1CCC(C(NC(=O)c2cccc(C(F)(F)F)c2Cl)c2ccc(F)cc2)N(C)C1 (stereo not drawn) [Compound 5, Trans-threo-2-chloro-N-[(1,5-dimethyl-2-piperidyl)(4-fluorophenyl)methyl]-3-(trifluoromethyl)benzamide hydrochloride 1:1]
